Drawing on patent US20250049970A1, “DLL3 TARGETING PEPTIDES AND CONSTRUCTS THEREOF” (MARIANA ONCOLOGY INC., priority 2023, published 2025), this text covers Kd for 13 molecules.

*1 amine or outer side, *2 acyl side, *3 side chain or, on linkers, in order; H or OH if unused. Where a SMILES comes first, the peptide text is derived from it. Bridges are numbered along the chain shown (N, C = ends). [ ]: non-standard residue; d: D form. The star is where a group is joined. ξ: configuration not given here. X9 = CSCC[C@H](NC(=O)c1ccc(CNC(=O)CN2CCN(CC(=O)O)CCN(CC(=O)O)CCN(CC(=O)O)CC2)cc1)C(=O)N[C@H](C(=O)N[C@@H](CCCCN*)C(=O)O)C(C)C; Ala(piperidin-4-yl) = O=C([C@H](CC1CCN([*:3])CC1)N[*:1])[*:2]; DOTA = O=C(O)CN1CCN(CC(=O)O)CCN(CC(=O)*)CCN(CC(=O)O)CC1; Trp(7-OMe) = COc1cccc2c(C[C@H](N)C(=O)O)c[nH]c12; Trp(7-aza) = N[C@@H](Cc1c[nH]c2ncccc12)C(=O)O; NMeW = CN[C@@H](Cc1c[nH]c2ccccc12)C(=O)O; Phe(4-F) = N[C@@H](Cc1ccc(F)cc1)C(=O)O; 2Nal = N[C@@H](Cc1ccc2ccccc2c1)C(=O)O; Gly(4-THP) = N[C@H](C(=O)O)C1CCOCC1; tBuAla = CC(C)(C)C[C@H](N)C(=O)O; Chg = N[C@H](C(=O)O)C1CCCCC1; Nle = CCCC[C@H](N)C(=O)O; CH2 = C([*:1])[*:2]; ξC = NC(CS)C(=O)O A value given as a limit tells only on which side of the number the result lay.

This assay deals with T1, DLL3 (Homo sapiens, UniProt Q9NYJ7).
T1 sequence (Q9NYJ7 27-618): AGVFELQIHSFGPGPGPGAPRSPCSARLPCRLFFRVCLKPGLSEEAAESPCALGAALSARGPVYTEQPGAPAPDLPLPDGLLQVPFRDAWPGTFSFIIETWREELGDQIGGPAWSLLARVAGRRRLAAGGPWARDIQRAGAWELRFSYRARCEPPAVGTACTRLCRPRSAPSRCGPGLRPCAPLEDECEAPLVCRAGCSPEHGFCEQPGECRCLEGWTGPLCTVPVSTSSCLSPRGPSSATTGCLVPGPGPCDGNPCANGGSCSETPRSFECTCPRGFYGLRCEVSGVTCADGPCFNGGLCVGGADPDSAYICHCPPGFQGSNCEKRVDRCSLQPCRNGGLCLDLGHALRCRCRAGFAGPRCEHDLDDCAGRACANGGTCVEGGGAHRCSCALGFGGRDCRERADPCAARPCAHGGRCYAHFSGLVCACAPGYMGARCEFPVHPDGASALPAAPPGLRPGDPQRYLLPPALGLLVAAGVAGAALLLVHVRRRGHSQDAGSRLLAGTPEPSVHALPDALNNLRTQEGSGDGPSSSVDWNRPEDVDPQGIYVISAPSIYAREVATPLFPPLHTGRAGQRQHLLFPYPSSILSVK
As to the kind of experiment: SPR KD, biotinylated human DLL3 on streptavidin chip (Table 8). Conditions: biotinylated human DLL3 on streptavidin sensor chip, 25° C., 1:1 binding model; read-out: SPR KD. Also noted: biotin (biotinylated). An excerpt:
Biotinylated target ligand human DLL3 was immobilized on a streptavidin sensor chip. A reference surface was set up for nonspecific binding and refractive index changes. […] Sensorgram curves were fitted with 1:1 binding model, and affinity and kinetic parameters were obtained using Biacore Insight evaluation 4.0. software.
The term Kd denotes the equilibrium constant for the complex coming apart. Take `CC(=O)N[C@@H](Cc1c[nH]c2ccccc12)C(=O)N[C@H](C(=O)N[C@H](C(=O)N[C@H]1CSSCC(C(=O)N[C@@H](Cc2c[nH]c3ccccc23)C(=O)N2CCC[C@H]2C(N)=O)NC(=O)[C@H]([C@@H](C)O)NC(=O)[C@@H](CCCCNC(=O)CN2CCN(CC(=O)O)CCN(CC(=O)O)CCN(CC(=O)O)CC2)NC(=O)[C@H](Cc2ccc3ccccc3c2)NC(=O)[C@H](CC(N)=O)NC(=O)[C@H](CC2CCNCC2)NC1=O)C1CCOCC1)[C@@H](C)O` (stereo partly shown) [compound 328, Ac-W-T-(THPG)-C(3)-[3-(4-piperidinyl)-Ala]-N-(2Nal)-Lys(DOTA)-(Thr)-C(3)-W-P-CONH2] (Ac-WT[Gly(4-THP)]C[Ala(piperidin-4-yl)]N[2Nal][dK](DOTA)T[ξC]WP-NH2; disulfide 4-10): the Kd is less than 1 nM.
For `CC[C@H](C)[C@H](NC(=O)[C@@H](NC(=O)[C@H](Cc1c[nH]c2ncccc12)NC(C)=O)[C@@H](C)O)C(=O)N[C@H]1CSSC[C@@H](C(=O)N[C@@H](Cc2c[nH]c3ccccc23)C(=O)N2CCC[C@H]2C(N)=O)NC(=O)[C@H](CC(=O)O)NC(=O)[C@H](Cc2cnc[nH]2)NC(=O)[C@H](Cc2c[nH]c3ccccc23)NC(=O)[C@H](CC(N)=O)NC(=O)[C@H](CC(N)=O)NC1=O` [compound 24, Ac-(7Aza-W)-T-I-C(3)-N-N-W-H-D-C(3)-W-P-CONH2] (Ac-[Trp(7-aza)]TICNNWHDCWP-NH2; disulfide 4-10) the value was 10 to 100 nM; for `CCCC[C@H](NC(=O)[C@@H](NC(=O)[C@H](Cc1c[nH]c2ccccc12)NC(C)=O)[C@@H](C)O)C(=O)N[C@H]1CSSC[C@@H](C(=O)N[C@@H](Cc2c[nH]c3ccccc23)C(=O)N2CCC[C@H]2C(N)=O)NC(=O)[C@H](CC(=O)O)NC(=O)[C@H](Cc2cnc[nH]2)NC(=O)[C@H](Cc2c[nH]c3ccccc23)NC(=O)[C@H](CC(N)=O)NC(=O)[C@H](CC(N)=O)NC1=O` [compound 339, Ac-W-T-(Nle)-C(3)-N-N-W-H-D-C(3)-W-P-CONH2] (Ac-WT[Nle]CNNWHDCWP-NH2; disulfide 4-10), 1 to 10 nM.
The figure for `CSCC[C@H](NC(=O)c1ccc(CNC(=O)CN2CCN(CC(=O)O)CCN(CC(=O)O)CCN(CC(=O)O)CC2)cc1)C(=O)N[C@H](C(=O)N[C@@H](CCCCNC(=O)CC[C@@H]1NC(=O)[C@H](Cc2ccc3ccccc3c2)NC(=O)[C@H](CC(N)=O)NC(=O)[C@H](CC2CCNCC2)NC(=O)[C@@H](NC(=O)[C@@H](NC(=O)[C@@H](NC(=O)[C@H](Cc2c[nH]c3ccccc23)NC(C)=O)[C@@H](C)O)C2CCCCC2)CSSC[C@@H](C(=O)N[C@@H](Cc2c[nH]c3ccccc23)C(=O)N2CCC[C@H]2C(N)=O)NC(=O)[C@H](CC(=O)O)NC1=O)C(=O)O)C(C)C` [compound 381, Ac-W-T-(Chg)-C(3)-[3-(4-piperidinyl)-Ala]-N-(2Nal)-[Glu(gLys(OH)-Val-Met-AmBz-DOTA)]-D-C(3)-W-P-CONH2] (Ac-WT[Chg]C[Ala(piperidin-4-yl)]N[2Nal]E(X9)DCWP-NH2; disulfide 4-10) is less than 1 nM.
The figure for `CC[C@H](C)[C@H](NC(=O)[C@@H](NC(=O)[C@H](Cc1c[nH]c2ccccc12)NC(C)=O)[C@@H](C)O)C(=O)N[C@H]1CSSC[C@@H](C(=O)N[C@@H](Cc2c[nH]c3ccccc23)C(=O)N2CCC[C@H]2C(N)=O)NC(=O)[C@H](CC(=O)O)NC(=O)[C@H](CCCCNC(=O)CN2CCN(CC(=O)O)CCN(CC(=O)O)CCN(CC(=O)O)CC2)NC(=O)[C@H](Cc2ccc3ccccc3c2)NC(=O)[C@H](CC(N)=O)NC(=O)[C@H](CC(N)=O)NC1=O` [compound 254] (Ac-WTICNN[2Nal]K(DOTA)DCWP-NH2; disulfide 4-10) is less than 1 nM.
For the molecule `CC[C@H](C)[C@H](NC(=O)[C@@H](NC(=O)[C@H](Cc1c[nH]c2ccccc12)NC(C)=O)[C@@H](C)O)C(=O)N[C@H]1CSSC[C@@H](C(=O)N(C)[C@@H](Cc2c[nH]c3ccccc23)C(=O)N2CCC[C@H]2C(=O)O)NC(=O)[C@H](CC(=O)O)NC(=O)[C@H](Cc2c[nH]cn2)NC(=O)[C@H](Cc2c[nH]c3ccccc23)NC(=O)[C@H](CC(N)=O)NC(=O)[C@H](CC(N)=O)NC1=O` [compound 389, Ac-W-T-I-C(3)-N-N-W-H-D-C(3)-(NmeW)-P-CONH2] (Ac-WTICNNWHDC[NMeW]P-OH; disulfide 4-10), the Kd is 100 to 300 nM.
The figure for `CSCC[C@H](NC(C)=O)C(=O)N[C@@H](Cc1c[nH]c2ccccc12)C(=O)N[C@H](C(=O)N[C@@H](Cc1ccc2ccccc2c1)C(=O)N[C@H]1CSSC[C@@H](C(=O)N[C@@H](Cc2c[nH]c3ccccc23)C(=O)N2CCC[C@H]2C(N)=O)NC(=O)[C@H](CC(=O)O)NC(=O)[C@H](Cc2cnc[nH]2)NC(=O)[C@H](Cc2c[nH]c3ccccc23)NC(=O)[C@H](CC(N)=O)NC(=O)[C@H](CC(N)=O)NC1=O)[C@@H](C)O` [compound 46, Ac-M-W-T-(2Nal)-C(3)-N-N-W-H-D-C(3)-W-P-CONH2] (Ac-MWT[2Nal]CNNWHDCWP-NH2; disulfide 5-11) is 10 to 100 nM; for `CC[C@H](C)[C@H](NC(=O)[C@@H](NC(=O)[C@H](Cc1c[nH]c2ccccc12)NC(C)=O)[C@@H](C)O)C(=O)N[C@H]1CSSC[C@@H](C(=O)N[C@@H](Cc2ccc(F)cc2)C(=O)N2CCC[C@H]2C(N)=O)NC(=O)[C@H](CC(=O)O)NC(=O)[C@H](Cc2c[nH]cn2)NC(=O)[C@H](Cc2c[nH]c3ccccc23)NC(=O)[C@H](CC(N)=O)NC(=O)[C@H](CC(N)=O)NC1=O` [compound 52, Ac-W-T-I-C(3)-N-N-W-H-D-C(3)-(4Fluoro-F)-P-CONH2] (Ac-WTICNNWHDC[Phe(4-F)]P-NH2; disulfide 4-10) it is 10 to 100 nM.
For `CC[C@H](C)[C@H](NC(=O)[C@@H](NC(=O)[C@H](Cc1c[nH]c2ccccc12)NC(=O)[C@H](CCSC)NC(C)=O)[C@@H](C)O)C(=O)N[C@H]1CSSC[C@@H](C(=O)N[C@H](C)C(=O)N2CCC[C@H]2C(N)=O)NC(=O)[C@H](CC(=O)O)NC(=O)[C@H](Cc2cnc[nH]2)NC(=O)[C@H](Cc2c[nH]c3ccccc23)NC(=O)[C@H](CC(N)=O)NC(=O)[C@H](CC(N)=O)NC1=O` [compound 9, Ac-M-W-T-I-C(3)-N-N-W-H-D-C(3)-(D-Ala)-P-CONH2] (Ac-MWTICNNWHDC[dA]P-NH2; disulfide 5-11), the Kd was in the range of 100 to 300 nM.
The figure for `CC[C@@H](C)[C@H](NC(=O)[C@@H](NC(=O)[C@H](Cc1c[nH]c2ccccc12)NC(C)=O)[C@@H](C)O)C(=O)N[C@H]1CSSC[C@@H](C(=O)N[C@@H](Cc2c[nH]c3ccccc23)C(=O)N2CCC[C@H]2C(N)=O)NC(=O)[C@H](CC(=O)O)NC(=O)[C@H](CCCCNC(=O)CN2CCN(CC(=O)O)CCN(CC(=O)O)CCN(CC(=O)O)CC2)NC(=O)[C@H](Cc2ccc3ccccc3c2)NC(=O)[C@H](CC(N)=O)NC(=O)C(CN2CCOCC2)NC1=O` (single isomer, unassigned) [compound 312, Ac-W-T-(Allo-Ile)-C(3)-[3-(1-morpholinyl)-Ala]-N-(2Nal)-Lys(DOTA)-D-C(3)-W-P-CONH2] is less than 1 nM.
Take `CC(=O)N[C@H](Cc1c[nH]c2ccccc12)C(=O)N[C@@H](C(=O)N[C@@H](CC(C)(C)C)C(=O)N[C@H]1CSCSC[C@H](C(=O)N[C@@H](Cc2c[nH]c3ccccc23)C(=O)N2CCC[C@H]2C(N)=O)NC(=O)[C@H](CC(=O)O)NC(=O)[C@H](CCCCNC(=O)CN2CCN(CC(=O)O)CCN(CC(=O)O)CCN(CC(=O)O)CC2)NC(=O)[C@H](Cc2ccc3ccccc3c2)NC(=O)[C@H](CC(N)=O)NC(=O)[C@H](CC(N)=O)NC1=O)[C@H](C)O` [compound 424, Ac-W-T-(t-Bu-Ala)-C(1)-N-N-(2Nal)-Lys(DOTA)-D-[D-Cys(1)]-W-P-CONH2] (Ac-[dW][dT][tBuAla]CNN[2Nal]K(DOTA)D[dC]WP-NH2; linker 4-10 via CH2): the Kd is less than 1 nM.
For `CCCCCCCCCCCCCCCC(=O)N[C@@H](CCC(=O)NCCOCCOCCOCCOCCOCCOCCOCCOCCOCCOCCOCCOCCOCCOCCOCCOCCOCCOCCOCCOCCOCCOCCOCCOCCC(=O)NCCCC[C@H](NC(=O)CN1CCC(C[C@@H]2NC(=O)[C@@H](NC(=O)[C@H](CC(C)(C)C)N(C)C(=O)[C@@H](NC(=O)[C@H](Cc3c[nH]c4ccccc34)NC(C)=O)[C@@H](C)O)CSCSC[C@@H](C(=O)N[C@@H](Cc3c[nH]c4ccccc34)C(=O)N3CCC[C@H]3C(N)=O)NC(=O)[C@H](CC(=O)O)NC(=O)[C@H](CCCCNC(=O)CN3CCN(CC(=O)O)CCN(CC(=O)O)CCN(CC(=O)O)CC3)NC(=O)[C@H](Cc3ccc4ccccc4c3)NC(=O)[C@H](CC(N)=O)NC2=O)CC1)C(=O)O)C(=O)O` [compound 450, Ac-W-T-(NMe-tBuAla)-C(1)-[PipA(acetic-Lys-PEG24-gE-palmitoyl)]-N-(2Nal)-Lys(DOTA)-D-C(1)-W-P-CONH2] the value was less than 1 nM; for `COc1cccc2c(C[C@H](NC(C)=O)C(=O)N[C@H](C(=O)N[C@H](C(=O)N[C@H]3CSSC[C@@H](C(=O)N[C@@H](Cc4c[nH]c5ccccc45)C(=O)N4CCC[C@H]4C(N)=O)NC(=O)[C@H](CC(=O)O)NC(=O)[C@H](CCCCNC(=O)CN4CCN(CC(=O)O)CCN(CC(=O)O)CCN(CC(=O)O)CC4)NC(=O)[C@H](Cc4ccc5ccccc5c4)NC(=O)[C@H](CC(N)=O)NC(=O)[C@H](CC4CCNCC4)NC3=O)C3CCCCC3)[C@@H](C)O)c[nH]c12` [compound 405, Ac-(7MeO-Trp)-T-(Chg)-C(3)-[3-(4-piperidinyl)-Ala]-N-(2Nal)-Lys(DOTA)-D-C(3)-W-P-CONH2] (Ac-[Trp(7-OMe)]T[Chg]C[Ala(piperidin-4-yl)]N[2Nal]K(DOTA)DCWP-NH2; disulfide 4-10), less than 1 nM.
